Literature values in patent publication US9446032B2, “Methods for treating cardiovascular disorders” (WOCKHARDT LIMITED, priority 2011, dated 2016).

Key:
[1] = incomplete owing to extensive first pass metabolism

solubility in ethanol (ethanol)	solubility in water (water)	solubility (BCS)	bioavailability [1]	SMILES
sparingly soluble	slightly soluble	–	–	CCOC(=O)C1=C(COCCN)NC(C)=C(C(=O)OC)C1c1ccccc1Cl (stereo not shown) [Amlodipine besylate]
–	–	highly soluble	about 50%	COCCc1ccc(OCC(O)CNC(C)C)cc1 (stereo not shown) [Metoprolol]
